Test [1] addresses human neutrophil collagenase (Homo sapiens, UniProt P22894). Particulars: cited from earlier work; for Effect of metal ion binding on collagenase activity: binding to human neutrophil collagenase.
The subject of the next test is matrix metalloproteinase. The settings on record: synoviocyte MMP activity; cited from earlier work.
For the next test, the system named is S. aureus (ATCC 25923). Particulars: overnight at 37° C., dilutions 1.95 to 250 μg/ml. Here is the method:
(§1) In vitro antimicrobial activity was calculated by determining the minimum inhibitory concentration (MIC) for a silver thiosulfate ion complex composition; for example, the silver thiosulfate ion complex produced according to Example 3. The antimicrobial activity of this embodiment was determined by using serial two-fold dilutions ranging from 1.95 to 250 μg/ml using tryptic soy broth (Difco) as a diluent. Each dilution was inoculated with a 0.005 ml aliquot from a 24-hour microbial growth culture having a concentration of approximately 10^5 to 10^7 CFU/ml. The dilutions were incubated overnight at 37° C. The MIC was determined by identifying the lowest dilution (expressed as μg/ml) of the silver thiosulfate ion complex that was without evidence of growth (i.e. was not cloudy).

Another test relates to E. coli (ATCC 25922). The settings on record: overnight at 37° C., dilutions 1.95 to 250 μg/ml. On the procedure:
as §1

In test [2] the test system is S. epidermidis (ATCC 12228). Particulars: overnight at 37° C., dilutions 1.95 to 250 μg/ml. Here is the method: as §1
Test [3] deals with P. aeruginosa (ATCC 27853). Particulars: overnight at 37° C., dilutions 1.95 to 250 μg/ml. Here is the method:
as §1

Here are results for eight compounds from patent publication US20040009964A1, “Compositions and methods for the treatment of matrix metalloproteinase-related diseases” (BioInterface Technologies, Inc., priority 2002, published 2004).

Entries after “also recorded” stand apart in the source; their conditions may differ.

Sequence of human neutrophil collagenase (P22894 101-467): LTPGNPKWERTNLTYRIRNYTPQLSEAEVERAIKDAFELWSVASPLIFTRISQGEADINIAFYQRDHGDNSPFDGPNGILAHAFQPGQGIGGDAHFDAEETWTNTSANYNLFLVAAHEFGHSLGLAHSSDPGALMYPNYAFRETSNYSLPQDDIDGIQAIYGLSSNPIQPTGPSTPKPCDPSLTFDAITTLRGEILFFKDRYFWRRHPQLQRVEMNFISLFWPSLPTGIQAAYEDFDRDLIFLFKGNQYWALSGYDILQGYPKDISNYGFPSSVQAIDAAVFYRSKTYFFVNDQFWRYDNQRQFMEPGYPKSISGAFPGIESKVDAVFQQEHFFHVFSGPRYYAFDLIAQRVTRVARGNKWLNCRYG

Consider `[Ag+]` [Ag(I)], for which the “Direct inhibition of matrix metalloproteinase” value in test [1] (Ag(I) concentrations up to 10 μM, higher concentrations precipitated in the culture media) was “did not directly inhibit”.

As to `[Au+]` [Au(I)], the “Effect of metal ion binding on collagenase activity” value (shortened to “Effect of metal ion binding”) in test [1] is given as “noncompetitive inhibition; also recorded: collagenase inhibition”. `[Cd+2]` [Cd(II)]: in test [1], the “Effect of metal ion binding” value is given as “noncompetitive inhibition; also recorded: collagenase inhibition”.

Turning to `[Cu+2]` [Cu(II)], the “Effect of metal ion binding” value in test [1] is reported as “noncompetitive inhibition; also recorded: collagenase inhibition”. Consider `[Hg+2]` [Hg(II)], for which the “Effect of metal ion binding” value in test [1] is listed as “collagenase inhibition”. As for `[Zn+2]` [Zn(II)], in test [1], the “Effect of metal ion binding” value is on record as “retention of activity”. As for `O=[N+]([O-])[O-].O=[N+]([O-])[O-].O=[N+]([O-])[O-].[Ga+3]` [gallium nitrate], in the test with matrix metalloproteinase, the “Inhibition of matrix metalloproteinase activity” value is “can inhibit matrix metalloproteinase activity”. The term MIC denotes the lowest concentration found to suppress growth. The low end stands for a more susceptible organism, the high end for a less susceptible organism. Regarding “Na4[Ag2(S2O3)3]H2O [Silver Thiosulfate Ion Complexes]”, the MIC (against S. aureus (ATCC 25923); against E. coli (ATCC 25922); in test [2]; in test [3]) was under 1.95 µg/mL each time.
